“And” between values parts separate entries of the source, which are not always exact repeats. Equal values may be shown once. Toxic doses and inconclusive results are not listed. The calls were made as follows: active = survival T/C of 150% or more; inactive = T/C below 125% in these data.
Test system: P388 leukemia ip, CD2F1 mice, survival T/C
Test: NCI In Vivo Anticancer Drug Screen. Data for tumor model P388 Leukemia (intraperitoneal) in CD2F1 (CDF1) mice
Details: endpoint: median survival time, higher = longer survival
Outline: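 Mice carrying the transplanted tumor received test compound or vehicle. Survival was recorded in each group, and the value is the treated-group measurement divided by that of the vehicle-treated control group.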

[1] = dose: 50.0 mg/kg/injection, schedule: Q01DX009 (ip), vehicle: Klucel (hydroxypropylcellulose) (HPC)
[2] = dose: 100.0 mg/kg/injection, schedule: Q01DX009 (ip), vehicle: Klucel (hydroxypropylcellulose) (HPC)
[3] = dose: 200.0 mg/kg/injection, schedule: Q01DX009 (ip), vehicle: Klucel (hydroxypropylcellulose) (HPC)
[4] = dose: 50.0 mg/kg/injection, schedule: Q01DX005 (ip), vehicle: Klucel (hydroxypropylcellulose) (HPC)
[5] = dose: 100.0 mg/kg/injection, schedule: Q01DX005 (ip), vehicle: Klucel (hydroxypropylcellulose) (HPC)
[6] = dose: 6.25 mg/kg/injection, schedule: Q01DX009 (ip), vehicle: saline
[7] = dose: 12.5 mg/kg/injection, schedule: Q01DX009 (ip), vehicle: saline
[8] = dose: 25.0 mg/kg/injection, schedule: Q01DX009 (ip), vehicle: saline
[9] = dose: 50.0 mg/kg/injection, schedule: Q01DX009 (ip), vehicle: saline
[10] = dose: 100.0 mg/kg/injection, schedule: Q01DX009 (ip), vehicle: saline
[11] = dose: 50.0 mg/kg/injection, schedule: Q01DX009 (ip), vehicle: saline with Tween-80
[12] = dose: 100.0 mg/kg/injection, schedule: Q01DX009 (ip), vehicle: saline with Tween-80
[13] = dose: 200.0 mg/kg/injection, schedule: Q01DX009 (ip), vehicle: saline with Tween-80
[14] = dose: 100.0 mg/kg/injection, schedule: Q01DX001 (ip), vehicle: saline with Tween-80
[15] = dose: 60.0 mg/kg/injection, schedule: Q01DX005 (ip), vehicle: Klucel (hydroxypropylcellulose) (HPC)
[16] = dose: 200.0 mg/kg/injection, schedule: Q01DX009 (ip), vehicle: saline

Measured: T/C

NC(Cc1c[nH]c2ccccc12)C(=O)O (configuration not stated)
inactive: [1] 99 % of control | [2] 107 % of control | [3] 104 % of control

CC(C)N[C@@H]1CCC[C@@H]2c3ccccc3[C@@]21O
inactive: dose: 60.0 mg/kg/injection, schedule: Q01DX005 (ip), vehicle: saline 96 % of control | dose: 120.0 mg/kg/injection, schedule: Q01DX005 (ip), vehicle: saline 95 % of control

CCN(CC)CCOC(=O)C(OCCCc1ccccc1)(c1ccccc1)c1ccccc1
inactive: [4] 111 % of control | [5] 112 % of control

O=C(O)CSc1ccc2c3c(cccc13)C(=O)c1ccccc1-2
inactive: [6] 100 % of control | [7] 99 % of control and 111 % of control | [8] 111 % of control | [9] 108 % of control | [10] 104 % of control

Cn1c(N)c(C(=O)C(F)(F)F)c(=O)n(C)c1=O
inactive: [11] 99 % of control | [12] 95 % of control | [13] 95 % of control

COc1cc(C=NC2CCCCC2)c(Br)c(OC)c1OC
inactive: dose: 100.0 mg/kg/injection, schedule: Q01DX001 (ip), vehicle: Klucel (hydroxypropylcellulose) (HPC) 107 % of control | dose: 200.0 mg/kg/injection, schedule: Q01DX001 (ip), vehicle: Klucel (hydroxypropylcellulose) (HPC) 107 % of control | dose: 400.0 mg/kg/injection, schedule: Q01DX001 (ip), vehicle: Klucel (hydroxypropylcellulose) (HPC) 107 % of control

c1ccc2c(c1)nc1snc(-n3ccnc3)n12
inactive: dose: 50.0 mg/kg/injection, schedule: Q04DX003 (ip), vehicle: saline with Tween-80 103 % of control | dose: 100.0 mg/kg/injection, schedule: Q04DX003 (ip), vehicle: saline with Tween-80 111 % of control | dose: 200.0 mg/kg/injection, schedule: Q04DX003 (ip), vehicle: saline with Tween-80 90 % of control

CCC(C)(C)N=C(Nc1cccnc1)Nc1ncccn1
inactive: dose: 100.0 mg/kg/injection, schedule: Q04DX003 (ip), vehicle: saline 101 % of control | dose: 200.0 mg/kg/injection, schedule: Q04DX003 (ip), vehicle: saline 92 % of control

O=C(OCC1C=C(OC(=O)c2ccccc2)C(=O)C(OC(=O)c2ccccc2)O1)c1ccccc1 (configuration not stated)
inactive: dose: 6.25 mg/kg/injection, schedule: Q01DX009 (ip), vehicle: saline with Tween-80 98 % of control | dose: 12.5 mg/kg/injection, schedule: Q01DX009 (ip), vehicle: saline with Tween-80 94 % of control | dose: 25.0 mg/kg/injection, schedule: Q01DX009 (ip), vehicle: saline with Tween-80 86 % of control | [11] 89 % of control | [12] 93 % of control | [13] 102 % of control

COc1ccc2cc1Oc1ccc(cc1)CC1c3cc(c(OC)cc3CCN1C)Oc1c(OC)c(OC)c(O)c3c1C(C2)N(C)CC3 (configuration not stated)
inactive: dose: 25.0 mg/kg/injection, schedule: Q01DX001 (ip), vehicle: saline with Tween-80 99 % of control | dose: 50.0 mg/kg/injection, schedule: Q01DX001 (ip), vehicle: saline with Tween-80 105 % of control | [14] 108 % of control and 111 % of control

CC(=O)c1sc(SSc2sc(C(C)=O)c(C)c2[N+](=O)[O-])c([N+](=O)[O-])c1C
inactive: dose: 100.0 mg/kg/injection, schedule: Q04DX002 (ip), vehicle: Klucel (hydroxypropylcellulose) (HPC) 91 % of control | dose: 200.0 mg/kg/injection, schedule: Q04DX002 (ip), vehicle: Klucel (hydroxypropylcellulose) (HPC) 89 % of control | dose: 400.0 mg/kg/injection, schedule: Q04DX002 (ip), vehicle: Klucel (hydroxypropylcellulose) (HPC) 86 % of control

CC(C)(C)c1cc(CCc2nc(CCc3cc(C(C)(C)C)c(O)c(C(C)(C)C)c3)nc(CCc3cc(C(C)(C)C)c(O)c(C(C)(C)C)c3)n2)cc(C(C)(C)C)c1O
inactive: [1] 92 % of control | [2] 88 % of control | [3] 93 % of control

COC(=O)c1c(-c2cc(OC)c(OC)cc2[N+](=O)[O-])c(C=O)n(C)c1C
inactive: [14] 100 % of control | dose: 200.0 mg/kg/injection, schedule: Q01DX001 (ip), vehicle: saline with Tween-80 99 % of control | dose: 400.0 mg/kg/injection, schedule: Q01DX001 (ip), vehicle: saline with Tween-80 91 % of control

O=C(N/N=C/c1ccccc1O)c1ccccc1-n1cccc1
inactive: [11] 95 % of control | [12] 104 % of control | [13] 94 % of control

Nc1cccc(S(=O)(=O)Nc2c(N)nc(SCC(=O)O)[nH]c2=O)c1
inactive: [15] 100 % of control | dose: 120.0 mg/kg/injection, schedule: Q01DX005 (ip), vehicle: Klucel (hydroxypropylcellulose) (HPC) 98 % of control | dose: 240.0 mg/kg/injection, schedule: Q01DX005 (ip), vehicle: Klucel (hydroxypropylcellulose) (HPC) 98 % of control

O=C(NNc1ccccc1)NN(C(=O)Nc1cccc(Cl)c1)c1ccccc1
inactive: [4] 96 % of control | [5] 104 % of control | dose: 200.0 mg/kg/injection, schedule: Q01DX005 (ip), vehicle: Klucel (hydroxypropylcellulose) (HPC) 100 % of control

Cn1c(C(C)(C)OC(=O)Oc2ccccc2)cnc1[N+](=O)[O-]
inactive: [2] 96 % of control | [3] 100 % of control

c1ccc2c(CC3NCCN3)cccc2c1
inactive: [6] 100 % of control | [7] 100 % of control | [8] 92 % of control

COc1ccc(C2=C(O)c3cc4ccccc4nc3S2(=O)=O)cc1
inactive: dose: 50.0 mg/kg/injection, schedule: Q04DX002 (ip), vehicle: saline 103 % of control | dose: 100.0 mg/kg/injection, schedule: Q04DX002 (ip), vehicle: saline 100 % of control | dose: 200.0 mg/kg/injection, schedule: Q04DX002 (ip), vehicle: saline 102 % of control

NC(=O)c1ncn(C2OC(CO)C(O)C2O)c1N (configuration not stated)
inactive: [9] 106 % of control and 109 % of control | [10] 98 % of control and 95 % of control | [16] 103 % of control and 108 % of control | dose: 400.0 mg/kg/injection, schedule: Q01DX009 (ip), vehicle: saline 107 % of control and 87 % of control

N=C(N)c1ccc(/C=C/c2cc3ccc(C(=N)N)cc3[nH]2)cc1
inactive: dose: 6.25 mg/kg/injection, schedule: Q04DX003 (ip), vehicle: saline 113 % of control

Cc1cc(NC(=O)c2ccc(NC(=O)c3ccc(N)cc3)cc2)ccc1N=Nc1ccc2c(O)c(N=Nc3ccc(S(=O)(=O)O)cc3C)c(S(=O)(=O)O)cc2c1
inactive: dose: 50.0 mg/kg/injection, schedule: Q01DX005 (ip), vehicle: saline with Tween-80 104 % of control and 107 % of control and 108 % of control | dose: 100.0 mg/kg/injection, schedule: Q01DX005 (ip), vehicle: saline with Tween-80 105 % of control and 112 % of control and 117 % of control | dose: 200.0 mg/kg/injection, schedule: Q01DX005 (ip), vehicle: saline with Tween-80 107 % of control and 114 % of control | dose: 400.0 mg/kg/injection, schedule: Q01DX005 (ip), vehicle: saline with Tween-80 113 % of control and 119 % of control

Cc1csc2n/c(=N/[N+](=O)[O-])sn12
inactive: dose: 60.0 mg/kg/injection, schedule: Q01DX005 (ip), vehicle: saline with Tween-80 92 % of control | dose: 120.0 mg/kg/injection, schedule: Q01DX005 (ip), vehicle: saline with Tween-80 103 % of control | dose: 240.0 mg/kg/injection, schedule: Q01DX005 (ip), vehicle: saline with Tween-80 120 % of control

CCCOCC(=O)O
inactive: [9] 106 % of control | [10] 110 % of control | [16] 101 % of control

COC(OC)C(C)N1CCCCC1 (configuration not stated)
inactive: [7] 104 % of control | [8] 97 % of control | [9] 99 % of control and 96 % of control

CC/C(=C(\c1ccccc1)c1ccc(OCCNC)cc1)c1ccccc1
inactive: dose: 15.0 mg/kg/injection, schedule: Q01DX005 (ip), vehicle: Klucel (hydroxypropylcellulose) (HPC) 98 % of control | dose: 30.0 mg/kg/injection, schedule: Q01DX005 (ip), vehicle: Klucel (hydroxypropylcellulose) (HPC) 88 % of control | [15] 92 % of control

Cc1cc(C)nc(N/N=C/c2c(Cl)cccc2Cl)n1
inactive: dose: 50.0 mg/kg/injection, schedule: Q04DX003 (ip), vehicle: Klucel (hydroxypropylcellulose) (HPC) 99 % of control | dose: 100.0 mg/kg/injection, schedule: Q04DX003 (ip), vehicle: Klucel (hydroxypropylcellulose) (HPC) 99 % of control | dose: 200.0 mg/kg/injection, schedule: Q04DX003 (ip), vehicle: Klucel (hydroxypropylcellulose) (HPC) 97 % of control
